Results as given in ChEMBL document CHEMBL3885861, “Open TG-GATES”.

Species: Rattus norvegicus
Assay: Open TG-GATES - Regimen: Daily Repeat
Type: toxicity, organism-based, Sprague-Dawley
Parameters: regimen Daily Repeat, gender Male, age 6 weeks
Settings: in vivo, po, route gavage; for APTT / Bas / Eos / Fbg / Ht / Lym / MCHC / MCV / Mono / RBC / Ret / WBC / Hb / Neu: tissue Blood; for KIDNEY_L / KIDNEY_R / KIDNEY_TOTAL: tissue Kidney; for ALP / ALT / AST / BUN / CRE / Ca / Cl / DBIL / GLC / IP / K / PL / RALB / TBIL / TC / TG / TP / gamma-GTP: tissue Plasma
[1] = 0 mg/kg, 72 h, dose level Control, time 3 day
[2] = 0 mg/kg, […], dose level Control, time 7 day
[3] = 0 mg/kg, […], dose level Control, time 14 day
[4] = 0 mg/kg, […], dose level Control, time 28 day

CCCCC1C(=O)N(c2ccccc2)N(c2ccccc2)C1=O [PHENYLBUTAZONE] was tested. Which TERMINAL_BW [1] did it give?
Its TERMINAL_BW is 239.7 g.

What about the APTT [1] of the same compound?
The APTT was 16.9 s.

What about the Bas [1] of the same compound?
Its Bas is 0%.

What about the Eos [1] of the same compound?
Its Eos is 1%.

What about the Fbg [1] of the same compound?
The Fbg was 233.4 mg/dL.

What about the Ht [1] of the same compound?
Its Ht is 42.7%.

What about the Lym [1] of the same compound?
The Lym was 81.6%.

And the MCHC [1]?
Its MCHC is 33.3%.

And the MCV [1]?
Its MCV is 63.6 fL.

And the Mono [1]?
The Mono was 5.6%.

What about the RBC [1] of the same compound?
Its RBC is 672.8 x10_4/ul.

What about the Ret [1] of the same compound?
The Ret was 7.3%.

And the WBC [1]?
Its WBC is 131.2 x10_2/uL.

What about the KIDNEY_L [1] of the same compound?
Its KIDNEY_L is 1.1 g.

And the KIDNEY_R [1]?
The KIDNEY_R was 1.1 g.

What about the KIDNEY_TOTAL [1] of the same compound?
Its KIDNEY_TOTAL is 2.2 g.

What about the ALP [1] of the same compound?
Its ALP is 868 IU/L.

And the ALT [1]?
Its ALT is 35.2 IU/L.

And the AST [1]?
Its AST is 61 IU/L.

What about the BUN [1] of the same compound?
The BUN was 17.4 mg/dL.

And the CRE [1]?
The CRE was 0.6 mg/dL.

What about the Ca [1] of the same compound?
Its Ca is 10.6 mg/dL.

And the Cl [1]?
Its Cl is 105 meq/L.

What about the DBIL [1] of the same compound?
The DBIL was 0 mg/dL.

And the GLC [1]?
Its GLC is 195.2 mg/dL.

And the IP [1]?
Its IP is 9 mg/dL.

What about the K [1] of the same compound?
Its K is 5.1 meq/L.

What about the PL [1] of the same compound?
Its PL is 170.6 mg/dL.

And the RALB [1]?
The RALB was 4 g/dL.

And the TBIL [1]?
Its TBIL is 0.3 mg/dL.

What about the TC [1] of the same compound?
The TC was 86.6 mg/dL.

What about the TG [1] of the same compound?
The TG was 136.4 mg/dL.

And the TP [1]?
The TP was 6.1 g/dL.

What about the gamma-GTP [1] of the same compound?
Its gamma-GTP is 1.6 IU/L.

What about the TERMINAL_BW [2] of the same compound?
Its TERMINAL_BW is 268.9 g.

And the TERMINAL_BW [3]?
Its TERMINAL_BW is 318.1 g.

What about the TERMINAL_BW [4] of the same compound?
The TERMINAL_BW was 373 g.

And the APTT [2]?
The APTT was 15.7 s.

What about the Bas [2] of the same compound?
The Bas was 0%.

What about the Eos [2] of the same compound?
The Eos was 0.8%.

What about the Fbg [2] of the same compound?
Its Fbg is 242.2 mg/dL.

What about the Hb [2] of the same compound?
Its Hb is 13.9 g/dL.

And the Ht [2]?
The Ht was 42.1%.

And the Lym [2]?
The Lym was 84.2%.

What about the MCHC [2] of the same compound?
The MCHC was 33.1%.

And the MCV [2]?
Its MCV is 62.4 fL.

And the Mono [2]?
Its Mono is 6.6%.

What about the Neu [2] of the same compound?
The Neu was 8.8%.

And the RBC [2]?
The RBC was 674.8 x10_4/ul.

And the Ret [2]?
Its Ret is 5.4%.

What about the WBC [2] of the same compound?
Its WBC is 155.4 x10_2/uL.

And the APTT [3]?
Its APTT is 16.4 s.

What about the Bas [3] of the same compound?
Its Bas is 0%.

What about the Eos [3] of the same compound?
Its Eos is 0.6%.

What about the Fbg [3] of the same compound?
The Fbg was 227.8 mg/dL.

And the Hb [3]?
The Hb was 15 g/dL.

What about the Ht [3] of the same compound?
The Ht was 44.8%.

And the Lym [3]?
Its Lym is 84.8%.

And the MCHC [3]?
Its MCHC is 33.6%.

And the MCV [3]?
The MCV was 62.7 fL.

What about the Mono [3] of the same compound?
Its Mono is 4.2%.

And the Neu [3]?
Its Neu is 10.2%.

And the RBC [3]?
Its RBC is 714.8 x10_4/ul.

What about the Ret [3] of the same compound?
The Ret was 4.4%.

What about the WBC [3] of the same compound?
Its WBC is 131.9 x10_2/uL.

What about the APTT [4] of the same compound?
The APTT was 16 s.

What about the Bas [4] of the same compound?
Its Bas is 0%.

And the Eos [4]?
Its Eos is 1%.

And the Fbg [4]?
The Fbg was 233 mg/dL.

And the Hb [4]?
Its Hb is 15.7 g/dL.

And the Ht [4]?
Its Ht is 46.9%.

What about the Lym [4] of the same compound?
The Lym was 82.8%.

And the MCHC [4]?
Its MCHC is 33.4%.

What about the MCV [4] of the same compound?
The MCV was 56.2 fL.

What about the Mono [4] of the same compound?
The Mono was 4.2%.

What about the RBC [4] of the same compound?
Its RBC is 835.8 x10_4/ul.

And the Ret [4]?
The Ret was 2.1%.

And the WBC [4]?
The WBC was 151.8 x10_2/uL.

And the KIDNEY_L [2]?
Its KIDNEY_L is 1.2 g.

What about the KIDNEY_R [2] of the same compound?
The KIDNEY_R was 1.1 g.

What about the KIDNEY_TOTAL [2] of the same compound?
The KIDNEY_TOTAL was 2.3 g.

And the KIDNEY_L [3]?
The KIDNEY_L was 1.2 g.

What about the KIDNEY_R [3] of the same compound?
The KIDNEY_R was 1.2 g.

And the KIDNEY_TOTAL [3]?
Its KIDNEY_TOTAL is 2.3 g.

And the KIDNEY_L [4]?
Its KIDNEY_L is 1.4 g.

What about the KIDNEY_R [4] of the same compound?
The KIDNEY_R was 1.4 g.

And the KIDNEY_TOTAL [4]?
The KIDNEY_TOTAL was 2.7 g.

And the ALP [2]?
The ALP was 919.6 IU/L.

What about the ALT [2] of the same compound?
The ALT was 35.6 IU/L.

And the AST [2]?
Its AST is 69 IU/L.

What about the BUN [2] of the same compound?
The BUN was 18.8 mg/dL.

And the CRE [2]?
The CRE was 0.5 mg/dL.

What about the Ca [2] of the same compound?
Its Ca is 10.6 mg/dL.

And the Cl [2]?
The Cl was 105.4 meq/L.

What about the DBIL [2] of the same compound?
Its DBIL is 0.006 mg/dL.

And the GLC [2]?
The GLC was 210.8 mg/dL.

And the IP [2]?
The IP was 8.9 mg/dL.

What about the K [2] of the same compound?
The K was 4.9 meq/L.

What about the RALB [2] of the same compound?
The RALB was 3.9 g/dL.

What about the TBIL [2] of the same compound?
The TBIL was 0.3 mg/dL.

And the TC [2]?
Its TC is 74.4 mg/dL.

And the TG [2]?
The TG was 112.6 mg/dL.

And the TP [2]?
Its TP is 6.6 g/dL.

What about the gamma-GTP [2] of the same compound?
The gamma-GTP was 1.8 IU/L.

What about the ALP [3] of the same compound?
Its ALP is 748 IU/L.

What about the ALT [3] of the same compound?
Its ALT is 31.4 IU/L.

What about the AST [3] of the same compound?
The AST was 57.8 IU/L.

What about the BUN [3] of the same compound?
The BUN was 19.6 mg/dL.

What about the CRE [3] of the same compound?
The CRE was 0.6 mg/dL.

And the Ca [3]?
Its Ca is 10.5 mg/dL.

What about the Cl [3] of the same compound?
Its Cl is 108 meq/L.

What about the DBIL [3] of the same compound?
The DBIL was 0.016 mg/dL.

And the GLC [3]?
Its GLC is 207.4 mg/dL.

And the IP [3]?
The IP was 7.9 mg/dL.

And the K [3]?
The K was 4.7 meq/L.

And the PL [3]?
Its PL is 160.4 mg/dL.

And the RALB [3]?
The RALB was 4 g/dL.

And the TBIL [3]?
Its TBIL is 0.3 mg/dL.

What about the TC [3] of the same compound?
The TC was 79.2 mg/dL.

What about the TG [3] of the same compound?
The TG was 177.6 mg/dL.

What about the TP [3] of the same compound?
Its TP is 6.2 g/dL.

And the gamma-GTP [3]?
Its gamma-GTP is 1.2 IU/L.

What about the ALP [4] of the same compound?
The ALP was 692.8 IU/L.

What about the ALT [4] of the same compound?
The ALT was 33 IU/L.

And the AST [4]?
Its AST is 62 IU/L.

What about the BUN [4] of the same compound?
The BUN was 20.2 mg/dL.

What about the CRE [4] of the same compound?
Its CRE is 0.6 mg/dL.

And the Ca [4]?
The Ca was 10.1 mg/dL.

What about the Cl [4] of the same compound?
Its Cl is 107.6 meq/L.

And the DBIL [4]?
The DBIL was 0.008 mg/dL.

What about the GLC [4] of the same compound?
Its GLC is 200 mg/dL.

What about the IP [4] of the same compound?
The IP was 6.8 mg/dL.

And the K [4]?
The K was 4.5 meq/L.

What about the RALB [4] of the same compound?
The RALB was 3.9 g/dL.

And the TBIL [4]?
Its TBIL is 0.3 mg/dL.

And the TC [4]?
Its TC is 61 mg/dL.

What about the TG [4] of the same compound?
The TG was 170.2 mg/dL.

And the TP [4]?
Its TP is 6.4 g/dL.

What about the gamma-GTP [4] of the same compound?
Its gamma-GTP is 2 IU/L.

What about the TERMINAL_BW (20 mg/kg, 72 h, dose level Low, time 3 day) of the same compound?
Its TERMINAL_BW is 234.1 g.
